Results taken from publication PMC12658114, “Pharmacologic inhibition of PCBP2 biomolecular condensates relieves Alzheimer’s disease” (Nature Communications, 2025).

How the values were obtained:
Experiment in all cases: biotin probe pull-down on streptavidin beads, Western blot
Type in all cases: biochemical
Conditions in all cases: lysate of transfected SH-SY5Y cells; labelled compound
[1] = target: T1, flag-tagged wild type INTS1 (INTS1-WT-flag) (Homo sapiens, UniProt Q8N201)
T1 construct: full-length cDNA (synthesized) in pcDNA3.1(+), C-terminal 3xFLAG, transiently expressed in SH-SY5Y cells, cell lysate

[2] = target: T2, (Homo sapiens, UniProt Q8N201, R1404L)
T2 construct: gene INTS1; full-length cDNA (synthesized) in pcDNA3.1(+), C-terminal 3xFLAG, transiently expressed in SH-SY5Y cells, cell lysate

flag-tagged INTS1 = target: T3, flag-tagged INTS1 (Homo sapiens, UniProt Q8N201, R1404K)
T3 construct: full-length cDNA (synthesized) in pcDNA3.1(+), C-terminal 3xFLAG, transiently expressed in SH-SY5Y cells, cell lysate

[3] = target: T4, (Homo sapiens, UniProt Q8N201, R1404A)
T4 construct: gene INTS1; full-length cDNA (synthesized) in pcDNA3.1(+), C-terminal 3xFLAG, transiently expressed in SH-SY5Y cells, cell lysate
T4 sequence (Q8N201 whole entry R1404A): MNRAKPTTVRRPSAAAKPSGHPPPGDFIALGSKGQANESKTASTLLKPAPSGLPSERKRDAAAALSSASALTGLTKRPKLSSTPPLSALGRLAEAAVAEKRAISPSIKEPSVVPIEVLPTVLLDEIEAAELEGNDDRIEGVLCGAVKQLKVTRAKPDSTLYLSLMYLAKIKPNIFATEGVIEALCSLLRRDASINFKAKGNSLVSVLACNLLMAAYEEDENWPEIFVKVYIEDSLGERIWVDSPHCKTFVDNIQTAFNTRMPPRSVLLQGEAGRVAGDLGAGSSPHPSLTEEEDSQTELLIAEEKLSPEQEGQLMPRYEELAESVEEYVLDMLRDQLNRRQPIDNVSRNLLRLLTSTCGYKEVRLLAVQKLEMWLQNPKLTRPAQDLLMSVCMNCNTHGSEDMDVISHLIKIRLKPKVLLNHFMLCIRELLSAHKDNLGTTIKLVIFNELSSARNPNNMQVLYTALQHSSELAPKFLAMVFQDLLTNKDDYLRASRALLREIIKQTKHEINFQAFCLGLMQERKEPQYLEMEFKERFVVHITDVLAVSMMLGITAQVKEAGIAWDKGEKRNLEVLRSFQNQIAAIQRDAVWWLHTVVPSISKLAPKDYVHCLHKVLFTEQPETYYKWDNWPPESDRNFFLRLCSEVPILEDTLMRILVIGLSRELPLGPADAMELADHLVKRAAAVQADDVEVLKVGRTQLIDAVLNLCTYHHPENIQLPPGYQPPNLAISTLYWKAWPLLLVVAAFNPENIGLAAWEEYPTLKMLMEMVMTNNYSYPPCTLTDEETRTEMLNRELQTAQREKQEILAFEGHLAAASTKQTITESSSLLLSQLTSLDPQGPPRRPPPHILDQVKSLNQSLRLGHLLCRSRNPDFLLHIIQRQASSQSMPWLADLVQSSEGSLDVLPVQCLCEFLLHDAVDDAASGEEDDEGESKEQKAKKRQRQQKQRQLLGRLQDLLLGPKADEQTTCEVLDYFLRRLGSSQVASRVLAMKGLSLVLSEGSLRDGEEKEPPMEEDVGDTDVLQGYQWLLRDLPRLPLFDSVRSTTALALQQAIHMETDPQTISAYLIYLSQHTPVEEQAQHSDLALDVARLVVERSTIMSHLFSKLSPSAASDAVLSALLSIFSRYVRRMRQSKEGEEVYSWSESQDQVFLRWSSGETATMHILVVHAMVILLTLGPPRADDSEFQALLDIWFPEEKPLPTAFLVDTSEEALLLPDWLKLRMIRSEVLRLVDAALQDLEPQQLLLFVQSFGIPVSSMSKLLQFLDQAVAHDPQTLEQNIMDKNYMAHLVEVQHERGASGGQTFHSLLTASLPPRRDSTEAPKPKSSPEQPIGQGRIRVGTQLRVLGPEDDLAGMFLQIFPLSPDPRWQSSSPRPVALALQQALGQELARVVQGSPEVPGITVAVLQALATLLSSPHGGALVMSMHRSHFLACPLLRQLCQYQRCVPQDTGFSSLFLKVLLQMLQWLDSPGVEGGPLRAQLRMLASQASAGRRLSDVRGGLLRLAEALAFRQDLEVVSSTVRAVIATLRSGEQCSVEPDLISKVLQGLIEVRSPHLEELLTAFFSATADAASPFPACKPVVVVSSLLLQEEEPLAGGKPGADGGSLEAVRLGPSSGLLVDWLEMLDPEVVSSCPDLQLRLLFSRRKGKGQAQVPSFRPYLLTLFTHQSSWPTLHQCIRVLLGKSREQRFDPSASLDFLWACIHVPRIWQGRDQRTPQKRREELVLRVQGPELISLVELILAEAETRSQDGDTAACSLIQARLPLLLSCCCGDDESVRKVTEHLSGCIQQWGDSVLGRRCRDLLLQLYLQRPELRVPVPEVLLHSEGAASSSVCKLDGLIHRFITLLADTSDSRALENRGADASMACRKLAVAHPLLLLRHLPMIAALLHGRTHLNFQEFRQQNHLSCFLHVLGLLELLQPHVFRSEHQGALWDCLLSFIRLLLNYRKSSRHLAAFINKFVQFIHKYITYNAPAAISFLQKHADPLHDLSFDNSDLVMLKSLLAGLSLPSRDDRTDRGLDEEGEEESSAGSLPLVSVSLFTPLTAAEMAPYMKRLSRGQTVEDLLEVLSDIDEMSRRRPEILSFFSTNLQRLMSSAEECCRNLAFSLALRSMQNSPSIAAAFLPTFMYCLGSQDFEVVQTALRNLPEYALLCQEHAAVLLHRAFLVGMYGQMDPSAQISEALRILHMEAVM

T2 sequence (Q8N201 whole entry R1404L): as the sequence (Q8N201 whole entry R1404A) above, with A1404L counted along it
T1 sequence (Q8N201 whole entry): as the sequence (Q8N201 whole entry R1404A) above, with A1404R counted along it
T3 sequence (Q8N201 whole entry R1404K): as the sequence (Q8N201 whole entry R1404A) above, with A1404K counted along it

N#Cc1c(NC(=O)CN2CCN(C(=O)CCCC[C@H]3SC[C@@H]4NC(=O)N[C@@H]43)CC2)sc2c1CCCC2 [CN-0928-biotin, N-(3-cyano-4,5,6,7-tetrahydrobenzo[b]thiophen-2-yl)-2-(4-(5-((3aS,4R,6aR)-2-oxohexahydro-1H-thieno[3,4-d]imidazol-4-yl)pentanoyl)piperazin-1-yl)acetamide]
biotin probe pull-down on streptavidin beads, Western blot [1]: CN-0928-biotin pulldown of flag-tagged wild type (INTS1-WT-flag) | pulldown [2]: (R1404A, R1404L, and R1404K) prevented the binding of CN-0928-biotin to flag-labeled INTS1 | pulldown (flag-tagged INTS1): (R1404A, R1404L, and R1404K) prevented the binding of CN-0928-biotin to flag-labeled INTS1 | pulldown [3]: (R1404A, R1404L, and R1404K) prevented the binding of CN-0928-biotin to flag-labeled INTS1
